Source: PubChem BioAssay (NCI)
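Grown in 96-well plates, cells were treated for 48 hours with each compound at five concentrations. Insufficient inhibition: endpoint recorded as highest concentration tested. Here, GI50 denotes the concentration required for 50% inhibition of growth. The concentration for full growth arrest is given as TGI.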

Columns and labels:
Assay in all cases: inhibition of tumour cell growth, NCI panel, 48 h
[1] = system: SK-MEL-2 melanoma
[2] = system: SK-OV-3 ovarian
[3] = system: UACC-257 melanoma
[4] = system: NCI-H522 lung
[5] = system: CCRF-CEM leukemia
[6] = system: SF-268 CNS
[7] = system: UACC-62 melanoma
[8] = system: U251 CNS
[9] = system: HL-60(TB) leukemia
[10] = system: HS 578T breast
[11] = system: OVCAR-5 ovarian
[12] = system: RXF 393 renal
[13] = system: UO-31 renal
[14] = system: M14 melanoma
[15] = system: MDA-MB-435
[16] = system: NCI-H226 lung
[17] = system: SW-620 colon
[18] = system: HOP-62 NSCLC
[19] = system: SK-MEL-28 melanoma
[20] = system: SF-539 CNS
[21] = system: SN12C renal
[22] = system: SK-MEL-5 melanoma
[23] = system: T-47D breast
[24] = system: PC-3 prostate
[25] = system: HCT-116 colon
[26] = system: DU-145 prostate
[27] = system: NCI/ADR-RES ovarian
[28] = system: SNB-75 CNS
[29] = system: HOP-92 NSCLC
[30] = system: RPMI-8226 leukemia
[31] = system: NCI-H460 lung
[32] = system: BT-549 breast
[33] = system: A498 renal
[34] = system: NCI-H23 lung
[35] = system: LOX IMVI melanoma
[36] = system: K-562 leukemia
[37] = system: IGROV1 ovarian
[38] = system: MDA-MB-231 breast
[39] = system: SF-295 CNS
[40] = system: SNB-19 CNS
[41] = system: 786-0 renal
[42] = system: HCT-15 colon
[43] = system: KM12 colon
[44] = system: SR leukemia
[45] = system: MOLT-4 leukemia
[46] = system: COLO 205 colon
[47] = system: EKVX NSCLC
[48] = system: HCC-2998 colon
[49] = system: OVCAR-8 ovarian
[50] = system: TK-10 renal
[51] = system: HT29 colon
[52] = system: OVCAR-4 ovarian
[53] = system: A549 NSCLC
[54] = system: OVCAR-3 ovarian
[55] = system: ACHN renal
[56] = system: MALME-3M melanoma
[57] = system: CAKI-1 renal
[58] = system: MCF7 breast

`O=C(NCCCCCCCNC(=O)OCc1ccc2c(Cl)cc(Cl)c(O)c2n1)OCc1ccc2c(Cl)cc(Cl)c(O)c2n1` was tested, and the GI50 [1] was 1330 nM, the TGI [1] was 2780 nM and the GI50 [2] was 3930 nM. For the same compound, the TGI [2] was 14000 nM, the GI50 [3] was 1210 nM and the TGI [3] was 2600 nM. It also gave a GI50 [4] of 303 nM, a TGI [4] of 1150 nM and a GI50 [5] of 282 nM. For the same compound, the TGI [5] was 1320 nM, the GI50 [6] was 1280 nM and the TGI [6] was 2780 nM. For the same compound, the GI50 [7] was 845 nM, the TGI [7] was 2130 nM and the GI50 [8] was 1600 nM. The TGI [8] was 3090 nM, the GI50 [9] was 470 nM and the TGI [9] was 1970 nM. It also gave a GI50 [10] of 1400 nM, a TGI [10] of 5350 nM and a GI50 [11] of 1690 nM. For the same compound, the TGI [11] was 3320 nM, the GI50 [12] was 812 nM and the TGI [12] was 2130 nM. For the same compound, the GI50 [13] was 321 nM, the TGI [13] was 1290 nM and the GI50 [14] was 419 nM. For the same compound, the TGI [14] was 1730 nM, the GI50 [15] was 297 nM and the TGI [15] was 931 nM. It also gave a GI50 [16] of 557 nM, a TGI [16] of 1590 nM and a GI50 [17] of 273 nM. It also gave a TGI [17] of 744 nM, a GI50 [18] of 1400 nM and a TGI [18] of 3220 nM. The GI50 [19] was 1170 nM, the TGI [19] was 2420 nM and the GI50 [20] was 414 nM. For the same compound, the TGI [20] was 1480 nM, the GI50 [21] was 774 nM and the TGI [21] was 2170 nM. It also gave a GI50 [22] of 966 nM, a TGI [22] of 2260 nM and a GI50 [23] of 1330 nM. It also gave a TGI [23] of 3950 nM, a GI50 [24] of 625 nM and a TGI [24] of 2160 nM. For the same compound, the GI50 [25] was 241 nM, the TGI [25] was 630 nM and the GI50 [26] was 672 nM. It also gave a TGI [26] of 1990 nM, a GI50 [27] of 338 nM and a TGI [27] of 3590 nM. The GI50 [28] was 905 nM, the TGI [28] was 2430 nM and the GI50 [29] was 1070 nM. The TGI [29] was 2710 nM, the GI50 [30] was 247 nM and the TGI [30] was 735 nM. The GI50 [31] was 1400 nM, the TGI [31] was 3510 nM and the GI50 [32] was 359 nM. For the same compound, the TGI [32] was 1420 nM, the GI50 [33] was 1480 nM and the TGI [33] was 2890 nM. The GI50 [34] was 1490 nM, the TGI [34] was 3200 nM and the GI50 [35] was 187 nM. The TGI [35] was 379 nM, the GI50 [36] was 319 nM and the TGI [36] was 4410 nM. The GI50 [37] was 561 nM, the TGI [37] was 1410 nM and the GI50 [38] was 1130 nM. It also gave a TGI [38] of 2450 nM, a GI50 [39] of 1730 nM and a TGI [39] of 3410 nM. For the same compound, the GI50 [40] was 1590 nM, the TGI [40] was 3060 nM and the GI50 [41] was 1400 nM. It also gave a TGI [41] of 2890 nM, a GI50 [42] of 221 nM and a TGI [42] of 542 nM. For the same compound, the GI50 [43] was 1180 nM, the TGI [43] was 2870 nM and the GI50 [44] was 267 nM. The TGI [44] was 1410 nM, the GI50 [45] was 367 nM and the TGI [45] was 2000 nM. The GI50 [46] was 564 nM, the TGI [46] was 2000 nM and the GI50 [47] was 1550 nM. It also gave a TGI [47] of 3220 nM, a GI50 [48] of 1650 nM and a TGI [48] of 3140 nM. The GI50 [49] was 395 nM, the TGI [49] was 1830 nM and the GI50 [50] was 1400 nM. The TGI [50] was 2730 nM, the GI50 [51] was 538 nM and the TGI [51] was 2460 nM. For the same compound, the GI50 [52] was 465 nM, the TGI [52] was 1620 nM and the GI50 [53] was 1850 nM. For the same compound, the TGI [53] was 3760 nM, the GI50 [54] was 298 nM and the TGI [54] was 838 nM. The GI50 [55] was 260 nM, the TGI [55] was 698 nM and the GI50 [56] was 1200 nM. The TGI [56] was 2530 nM, the GI50 [57] was 378 nM and the TGI [57] was 1550 nM.

`Nc1[nH]c(=O)ncc1CO` was tested, and the GI50 [1] was > 100000 nM, the TGI [1] was > 100000 nM and the GI50 [2] was > 100000 nM. For the same compound, the TGI [2] was > 100000 nM, the GI50 [3] was > 100000 nM and the TGI [3] was > 100000 nM. For the same compound, the GI50 [4] was > 100000 nM, the TGI [4] was > 100000 nM and the GI50 [5] was > 100000 nM. The TGI [5] was > 100000 nM, the GI50 [6] was > 100000 nM and the TGI [6] was > 100000 nM. The GI50 [7] was > 100000 nM, the TGI [7] was > 100000 nM and the GI50 [8] was > 100000 nM. The TGI [8] was > 100000 nM, the GI50 [9] was > 100000 nM and the TGI [9] was > 100000 nM. The GI50 [10] was > 100000 nM, the TGI [10] was > 100000 nM and the GI50 [11] was > 100000 nM. For the same compound, the TGI [11] was > 100000 nM, the GI50 [12] was > 100000 nM and the TGI [12] was > 100000 nM. For the same compound, the GI50 [13] was > 100000 nM, the TGI [13] was > 100000 nM and the GI50 [14] was > 100000 nM. For the same compound, the TGI [14] was > 100000 nM, the GI50 [15] was > 100000 nM and the TGI [15] was > 100000 nM. For the same compound, the GI50 [58] was > 100000 nM, the TGI [58] was > 100000 nM and the GI50 [16] was > 100000 nM. The TGI [16] was > 100000 nM, the GI50 [17] was > 100000 nM and the TGI [17] was > 100000 nM. For the same compound, the GI50 [18] was > 100000 nM, the TGI [18] was > 100000 nM and the GI50 [19] was > 100000 nM. The TGI [19] was > 100000 nM, the GI50 [20] was > 100000 nM and the TGI [20] was > 100000 nM. For the same compound, the GI50 [21] was > 100000 nM, the TGI [21] was > 100000 nM and the GI50 [22] was > 100000 nM. For the same compound, the TGI [22] was > 100000 nM, the GI50 [23] was > 100000 nM and the TGI [23] was > 100000 nM. For the same compound, the GI50 [24] was > 100000 nM, the TGI [24] was > 100000 nM and the GI50 [25] was > 100000 nM. The TGI [25] was > 100000 nM, the GI50 [26] was > 100000 nM and the TGI [26] was > 100000 nM. The GI50 [28] was > 100000 nM, the TGI [28] was > 100000 nM and the GI50 [29] was > 100000 nM. For the same compound, the TGI [29] was > 100000 nM, the GI50 [30] was > 100000 nM and the TGI [30] was > 100000 nM. For the same compound, the GI50 [31] was > 100000 nM, the TGI [31] was > 100000 nM and the GI50 [32] was > 100000 nM. For the same compound, the TGI [32] was > 100000 nM, the GI50 [33] was > 100000 nM and the TGI [33] was > 100000 nM. For the same compound, the GI50 [34] was > 100000 nM, the TGI [34] was > 100000 nM and the GI50 [35] was > 100000 nM. The TGI [35] was > 100000 nM, the GI50 [36] was > 100000 nM and the TGI [36] was > 100000 nM. The GI50 [37] was > 100000 nM, the TGI [37] was > 100000 nM and the GI50 [38] was > 100000 nM. For the same compound, the TGI [38] was > 100000 nM, the GI50 [39] was > 100000 nM and the TGI [39] was > 100000 nM. For the same compound, the GI50 [40] was > 100000 nM, the TGI [40] was > 100000 nM and the GI50 [41] was > 100000 nM. The TGI [41] was > 100000 nM, the GI50 [42] was > 100000 nM and the TGI [42] was > 100000 nM. The GI50 [43] was > 100000 nM, the TGI [43] was > 100000 nM and the GI50 [44] was > 100000 nM. The TGI [44] was > 100000 nM, the GI50 [45] was > 100000 nM and the TGI [45] was > 100000 nM. For the same compound, the GI50 [46] was > 100000 nM, the TGI [46] was > 100000 nM and the GI50 [48] was > 100000 nM. The TGI [48] was > 100000 nM, the GI50 [49] was > 100000 nM and the TGI [49] was > 100000 nM. The GI50 [50] was > 100000 nM, the TGI [50] was > 100000 nM and the GI50 [51] was > 100000 nM. The TGI [51] was > 100000 nM, the GI50 [52] was > 100000 nM and the TGI [52] was > 100000 nM. For the same compound, the GI50 [53] was > 100000 nM, the TGI [53] was > 100000 nM and the GI50 [54] was > 100000 nM. For the same compound, the TGI [54] was > 100000 nM, the GI50 [55] was > 100000 nM and the TGI [55] was > 100000 nM. For the same compound, the GI50 [56] was > 100000 nM, the TGI [56] was > 100000 nM and the GI50 [57] was > 100000 nM. The TGI [57] was > 100000 nM.
